US11130780B2, “Inhibitors of growth factor activation enzymes” (Washington University, priority 2015, dated 2021)
pIC50, pKi: −log10 of the molar value. Like-named read-outs stand apart in the source and are kept apart here.

How the values were obtained:
HGFA [1] = biological target: T1, HGFA (Homo sapiens, UniProt Q04756); experiment: Chromogenic kinetic enzyme inhibitor assay of HGFA; assay type: biochemical; settings: Table 4.1; chromogenic substrate Pefachrome FVIIa
T1 construct: His6 tag (N); seven amino acid spacer and seven amino acid TEV cleavage site (N); Honey Bee melittin signal peptide (N); made in house; host or cells: High 5 insect cells (baculovirus; virus raised in Sf9)
T1 sequence (Q04756 373-655): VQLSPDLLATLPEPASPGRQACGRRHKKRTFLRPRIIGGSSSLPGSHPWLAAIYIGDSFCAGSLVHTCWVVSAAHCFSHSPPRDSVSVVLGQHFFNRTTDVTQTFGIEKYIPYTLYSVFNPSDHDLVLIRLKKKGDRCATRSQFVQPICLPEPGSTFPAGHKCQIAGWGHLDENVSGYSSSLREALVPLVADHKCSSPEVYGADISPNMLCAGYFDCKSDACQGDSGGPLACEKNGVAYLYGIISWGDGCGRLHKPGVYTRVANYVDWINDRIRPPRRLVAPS
Excerpt: This PCR product was cloned into the SfoI-HindIII sites of a modified pFastBac HT baculovirus expression vector (Addgene, Cambridge, Mass.). This vector contains a six amino His tag followed by a seven amino spacer and a seven amino acid TEV cleavage site placed immediately downstream of the Honey Bee melittin signal peptide. Using a modified Bac to Bac Expression System (Life Technologies, Carlsbad, Calif.), recombinant HGFA bacmids were obtained by transforming DH10Bac Escherichia coli cells. To obtain HGFA containing baculovirus, purified bacmids were transfected into Sf9 insect cells. After 5 days in culture at 27° C., media was harvested from transfected Sf9 cells. This media was used to prepare baculovirus infected insect cells (BIICs). These BIIICs were used to infect High 5 insect cells. Four days post infection, media was harvested and recombinant protein prepared as follows. Media was chilled to 4° C. and spun at 4000×g for 20 minutes (all subsequent steps were performed at 4° C. unless noted). […] Concentrated media was then buffer exchanged in two steps, five volumes of 50 mM Na-phosphate, 500 mM NaCl, pH 6.2, followed by five volumes of 50 mM Na-phosphate, 500 mM NaCl, pH 7.5. […] After mixing this slurry for 12 hours, nickel agarose beads were allowed to settle by gravity and then loaded into a column. Beads were washed with buffer (25 mM Na-phosphate, 500 mM NaCl, 25 mM imidazole, pH 8) and the bound protein eluted using (25 mM Na-phosphate, 500 mM NaCl, 250 mM imidazole, pH 8). Using a Amicon Ultra-4 Centrifugal filters (#UFC801008, Merck Millipore, Ltd., Tullagreen, Ireland), peak protein fractions were concentrated and run over a Superdex-200 10/300 GL column (GE Healthcare Life Sciences, Piscataway, N.J.) in 10 mM Tris, 200 mM NaCl, 0.2 mM EDTA, pH 8. HGFA containing fractions were pooled, concentrated, made 50% glycerol, and stored at minus 20° C. Protein was quantitated using a modified Lowry protein assay (#500-0006, Bio-Rad Laboratories, Hercules, Calif.).
Using Gen 5 2.00 software program (Biotek, Winnoski, Vt.), a four parameter curve fit was used to determine the inhibitor IC50s from a plot of the mean reaction velocity versus the inhibitor concentration. The IC50 values represent the average of three separate experimental determinations.

hepsin = biological target: T2, hepsin (Homo sapiens, UniProt P05981); experiment: Fluorescent kinetic enzyme inhibitor assay of hepsin; assay type: biochemical; settings: for pIC50: Table 4.1
T2 construct: purchased R&D Systems 4776-SE-010
Summary of the method: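 Fluorescence (ex 380/em 460 nm) followed kinetically at room temperature; IC50 from four-parameter fit of mean velocity versus concentration, averaged over three experiments.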

HGFA [2] = biological target: T1, HGFA; experiment: Biochemical assay for proteolysis of pro-HGF by HGFA; settings: immunoblot; inhibitors 0-12.5 μM; 1 nM HGFA
Description: (§1) In order to determine efficiency of our recombinant HGFA we performed a concentration response of HGFA using a fixed concentration of pro-HGF and pro-MSP.
(§2) After 30 minutes incubation at room temperature (25° C.), 25 ng of pro-HGF (R&D Systems, NKG011306A) was added. […] Proteins were transferred to Millipore Immobilon-P membranes (Billerica, Mass.) and then immunoblotted at 4° C. with anti-HGF antibody (R&D Systems, AF-294-NA) and HRP conjugated donkey anti-goat IgG (Santa Cruz, SC-2020) diluted 1:500 and 1:5000 in 5% milk/TBST (5% Carnation nonfat dried milk/10 mM Tris, 150 mM NaCl, 0.05% TWEEN 20, pH 8.0), respectively. Membranes were washed in TBST, immersed in Millipore Luminata Crescendo Westem-HRP Substrate for 5 minutes, and then exposures made on a BioRad ChemiDoc MP Imaging System (Hercules, Calif.). For pro-MSP proteolysis assays, the procedures were similar, except that the HGFA concentration was 75 nM, pro-MSP (R&D Systems ZN081306A) concentration was 50 ng per reaction, and 1:500 dilution of anti-MSP antibody (R&D Systems, AF352) was used for MSP detection during immunoblotting.

HGFA [3] = biological target: T1, HGFA; experiment: Biochemical assay for proteolysis of pro-MSP by HGFA; settings: immunoblot; inhibitors 0-12.5 μM
Description: as §1, §2

[4] = Table 4.2, Boc-QAR-AMC substrate, read-out: Hepsin Ki

T2 sequence (P05981 163-417 limits assumed): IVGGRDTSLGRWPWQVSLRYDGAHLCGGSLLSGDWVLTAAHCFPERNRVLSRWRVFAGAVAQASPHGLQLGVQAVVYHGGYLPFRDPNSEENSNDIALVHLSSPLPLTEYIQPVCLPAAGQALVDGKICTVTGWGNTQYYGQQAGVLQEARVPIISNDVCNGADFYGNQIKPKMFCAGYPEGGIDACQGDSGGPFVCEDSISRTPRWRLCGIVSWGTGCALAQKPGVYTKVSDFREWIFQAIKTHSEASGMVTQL
T2 sequence (P05981 45-162 partner limits assumed): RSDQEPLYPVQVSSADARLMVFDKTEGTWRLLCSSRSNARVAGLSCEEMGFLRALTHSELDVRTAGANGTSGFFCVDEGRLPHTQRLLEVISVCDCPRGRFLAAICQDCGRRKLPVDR

In the case of `CC(=O)N[C@@H](CCCCN)C(=O)N[C@@H](CCC(N)=O)C(=O)N[C@@H](CC(C)C)C(=O)N[C@@H](CCCNC(=N)N)C(=O)c1nccs1` [Compound 5, Ac-KQLR(SEQ ID NO: 1)-kt], the pIC50 (HGFA [1]) was 6.35, the “fold more potent for hepsin versus HGFA” value (hepsin) was 200 fold and the pIC50 (hepsin) was 8.70. For the same compound, the pKi (hepsin; [4]) was 9.72, the “inhibition of pro-HGF activation by HGFA” value (HGFA [2]) was “dose-dependent inhibition” and the “inhibition of pro-MSP proteolysis by HGFA” value (HGFA [3]) was “dose-dependent inhibition”.
`CC(=O)N[C@@H](CCCCN)C(=O)N[C@@H](CCC(N)=O)C(=O)N[C@@H](Cc1ccccc1)C(=O)N[C@@H](CCCNC(=N)N)C(=O)c1nccs1` [Compound 5c, Ac-KQFR(SEQ ID NO: 4)-kt] gave a pIC50 (HGFA [1]) of 6.33 and a pKi (hepsin; [4]) of 9.24.
Work on `CC(=O)N[C@@H](CCCNC(=N)N)C(=O)N[C@@H](CCC(N)=O)C(=O)N[C@@H](CC(C)C)C(=O)N[C@@H](CCCNC(=N)N)C(=O)c1nccs1` [Compound 5e, Ac-RQLR(SEQ ID NO: 6)-kt] yielded a pIC50 (HGFA [1]) of 6.57 and a pIC50 (hepsin) of 9.00.
`CC(=O)N[C@@H](CCCCN)C(=O)N[C@@H](CCCNC(=N)N)C(=O)N[C@@H](CC(C)C)C(=O)N[C@@H](CCCNC(=N)N)C(=O)c1nccs1` [Compound 5g, Ac-KRLR(SEQ ID NO: 8)-kt] was tested, and the pIC50 (HGFA [1]) was 6.65, the pIC50 (hepsin) was 8.30 and the “inhibition of pro-HGF activation by HGFA” value (HGFA [2]) was “dose-dependent inhibition”. For the same compound, the “inhibition of pro-MSP proteolysis by HGFA” value (HGFA [3]) was “dose-dependent inhibition”.
Work on `CC(=O)N[C@@H](Cc1c[nH]c2ccccc12)C(=O)N[C@@H](CCCNC(=N)N)C(=O)N[C@@H](CC(C)C)C(=O)N[C@@H](CCCNC(=N)N)C(=O)c1nccs1` [Compound 5h, Ac-WRLR(SEQ ID NO: 9)-kt] yielded a pIC50 (HGFA [1]) of 6.56, a pIC50 (hepsin) of 9.52 and a pKi (hepsin; [4]) of 9.68. For the same compound, the “inhibition of pro-HGF activation by HGFA” value (HGFA [2]) was “dose-dependent inhibition” and the “inhibition of pro-MSP proteolysis by HGFA” value (HGFA [3]) was “dose-dependent inhibition”.
For `CC(=O)N[C@@H](CO)C(=O)N[C@@H](CCCCN)C(=O)N[C@@H](CC(C)C)C(=O)N[C@@H](CCCNC(=N)N)C(=O)c1nccs1` [Compound 6, Ac-SKLR(SEQ ID NO: 10)-kt], the pIC50 (HGFA [1]) was 6.25, the “fold more potent for hepsin versus HGFA” value (hepsin) was 70 fold and the pKi (hepsin; [4]) was 8.92.
For `CC(=O)N[C@@H](CO)C(=O)N[C@@H](CCCCN)C(=O)N[C@@H](Cc1ccccc1)C(=O)N[C@@H](CCCNC(=N)N)C(=O)c1nccs1` [Compound 6c, Ac-SKFR(SEQ ID NO: 13)-kt], the pIC50 (HGFA [1]) was 6.28 and the pIC50 (hepsin) was 7.29.
In the case of `CC(=O)N[C@@H](CO)C(=O)N[C@@H](CCCNC(=N)N)C(=O)N[C@@H](CC(C)C)C(=O)N[C@@H](CCCNC(=N)N)C(=O)c1nccs1` [Compound 6e, Ac-SRLR(SEQ ID NO: 15)-kt], the pIC50 (HGFA [1]) was 6.52, the pIC50 (hepsin) was 8.30 and the “inhibition of pro-MSP proteolysis by HGFA” value (HGFA [3]) was “dose-dependent inhibition”.
`CC(=O)N[C@@H](CO)C(=O)N[C@@H](Cc1c[nH]c2ccccc12)C(=O)N[C@@H](CC(C)C)C(=O)N[C@@H](CCCNC(=N)N)C(=O)c1nccs1` [Compound 6g, Ac-SWLR(SEQ ID NO: 17)-kt] showed a pIC50 (HGFA [1]) of 6.36, a pIC50 (hepsin) of 8.05 and a pKi (hepsin; read-out: Ki for hepsin) of 8.92.
Work on `N=C(N)c1ccc2cc(OC(=O)c3ccc(N=C(N)N)cc3)ccc2c1` [Nafamostat, reference compound] yielded a pIC50 (HGFA [1]) of 6.10, a pIC50 (hepsin) of 8.70 and a pKi (hepsin; [4]) of 9.28. For the same compound, the “inhibition of pro-HGF activation by HGFA” value (HGFA [2]) was “dose-dependent inhibition” and the “inhibition of pro-MSP proteolysis by HGFA” value (HGFA [3]) was “dose-dependent inhibition”.
